Assays:
[1] = biological target: T1, Delta-type opioid receptor (Homo sapiens, UniProt P41143); assay: Displacement of [3H]C1-DPDPE from human recombinant Opioid receptor delta 1 on CHO cell membranes.; type: cell-based
Mu-type opioid receptor [2] = biological target: T2, Mu-type opioid receptor (Homo sapiens, UniProt P35372); assay: Displacement of [3H]DAMGO from human recombinant Opioid receptor mu 1 on CHO cell membranes.; type: cell-based
[3] = biological target: T3, Kappa-type opioid receptor (Homo sapiens, UniProt P41145); assay: Displacement of [3H]U-69593 from human recombinant Opioid receptor kappa 1 on CHO cell membranes.; type: cell-based
[4] = biological target: T3, Kappa-type opioid receptor; assay: Percent stimulation of [35S]GTP-gamma-S, binding in recombinant human Opioid receptor kappa 1 transfected into CHO cells: Antagonist activity; type: functional, cell-based; details: filed as antagonist
[5] = biological target: T1, Delta-type opioid receptor; assay: Stimulation of [35S]GTP-gamma-S, binding at human recombinant Opioid receptor delta 1 transfected into CHO cells.; type: functional, cell-based
Mu-type opioid receptor [6] = biological target: T2, Mu-type opioid receptor; assay: Stimulation of [35S]GTP-gamma-S, binding to recombinant human Opioid receptor mu 1 expressed in CHO cells; type: functional, cell-based
[7] = biological target: Opioid receptors; mu & delta (Homo sapiens) (UniProt P41143+P35372); assay: Selectivity between mu opioid receptor and delta opioid receptor.; type: functional
[8] = biological target: T1, Delta-type opioid receptor; assay: Percent stimulation of [35S]GTP-gamma-S, binding to recombinant human Opioid receptor delta 1 expressed in CHO cells; type: functional, cell-based
[9] = biological target: T3, Kappa-type opioid receptor; assay: Stimulation of […] binding at human recombinant Opioid receptor kappa 1 transfected into CHO cells.; type: cell-based
Mu-type opioid receptor [10] = biological target: T2, Mu-type opioid receptor; assay: Percent stimulation of [35S]GTP-gamma-S, binding in recombinant human Opioid receptor mu 1 transfected into CHO cells; type: functional, cell-based
[11] = biological target: Opioid receptors; delta & kappa (Homo sapiens) (UniProt P41145+P41143); assay: Selectivity between kappa opioid receptor and delta opioid receptor.; type: functional
[12] = biological target: T3, Kappa-type opioid receptor; assay: Percent stimulation of [35S]GTP-gamma-S, binding in recombinant human Opioid receptor kappa 1 transfected into CHO cells; type: functional, cell-based
[13] = biological target: T3, Kappa-type opioid receptor; assay: Percent stimulation of […] binding in recombinant human Opioid receptor kappa 1 transfected into CHO cells: Antagonist activity; type: cell-based; details: filed as antagonist
Mu-type opioid receptor [14] = biological target: T2, Mu-type opioid receptor; assay: Percent stimulation of [35S]GTP-gamma-S, binding in recombinant human mu opioid receptor transfected into CHO cells; type: functional, cell-based

Opioid receptors; mu & delta (Homo sapiens), sequence (P35372 whole entry, looked up): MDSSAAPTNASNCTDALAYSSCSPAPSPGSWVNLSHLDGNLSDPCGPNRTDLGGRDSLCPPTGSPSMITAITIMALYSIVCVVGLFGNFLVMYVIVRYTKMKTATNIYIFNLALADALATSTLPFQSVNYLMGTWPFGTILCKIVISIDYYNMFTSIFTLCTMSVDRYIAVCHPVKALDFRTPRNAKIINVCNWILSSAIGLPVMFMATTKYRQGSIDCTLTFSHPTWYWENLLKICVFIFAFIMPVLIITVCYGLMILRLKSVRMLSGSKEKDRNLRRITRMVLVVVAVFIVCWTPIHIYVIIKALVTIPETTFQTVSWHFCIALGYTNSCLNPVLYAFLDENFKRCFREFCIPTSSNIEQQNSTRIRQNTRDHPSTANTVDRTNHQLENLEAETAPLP
Opioid receptors; mu & delta (Homo sapiens), sequence (P41143 whole entry, looked up): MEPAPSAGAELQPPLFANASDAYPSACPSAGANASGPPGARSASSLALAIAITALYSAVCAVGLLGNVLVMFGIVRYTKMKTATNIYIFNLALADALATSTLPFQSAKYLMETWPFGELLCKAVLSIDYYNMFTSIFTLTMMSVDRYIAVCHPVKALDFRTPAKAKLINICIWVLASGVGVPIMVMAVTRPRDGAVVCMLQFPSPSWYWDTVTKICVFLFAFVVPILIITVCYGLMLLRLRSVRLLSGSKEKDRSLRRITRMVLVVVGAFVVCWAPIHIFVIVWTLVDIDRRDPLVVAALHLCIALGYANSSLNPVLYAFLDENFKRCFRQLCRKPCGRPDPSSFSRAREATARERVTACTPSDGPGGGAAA
T2 sequence (P35372 whole entry): as the sequence (P35372 whole entry, looked up) above
T1 sequence (P41143 whole entry): as the sequence (P41143 whole entry, looked up) above
Opioid receptors; delta & kappa (Homo sapiens), sequence (P41143 whole entry, looked up): as above
Opioid receptors; delta & kappa (Homo sapiens), sequence (P41145 whole entry, looked up): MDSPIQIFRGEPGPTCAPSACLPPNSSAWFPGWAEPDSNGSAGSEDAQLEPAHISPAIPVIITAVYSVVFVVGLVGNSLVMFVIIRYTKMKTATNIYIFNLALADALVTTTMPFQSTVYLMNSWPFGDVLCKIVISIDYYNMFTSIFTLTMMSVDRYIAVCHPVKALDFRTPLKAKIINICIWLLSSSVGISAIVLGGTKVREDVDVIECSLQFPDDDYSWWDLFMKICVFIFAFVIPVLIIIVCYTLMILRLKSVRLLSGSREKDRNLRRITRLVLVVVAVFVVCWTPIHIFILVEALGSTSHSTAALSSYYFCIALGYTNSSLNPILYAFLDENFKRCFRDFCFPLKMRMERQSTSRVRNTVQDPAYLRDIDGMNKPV
T3 sequence (P41145 whole entry): as the sequence (P41145 whole entry, looked up) above

| SMILES | Ki [1] [nM] | Ki (Mu-type opioid receptor [2]) [nM] | Ki [3] [nM] | Activity [4] | EC50 [5] [nM] | EC50 (Mu-type opioid receptor [6]) [nM] | Selectivity [7] | Stimulation [8] [%] | EC50 [9] [nM] | Activity (Mu-type opioid receptor [10]) [%] | Selectivity [11] | Stimulation [12] [%] | Stimulation (Mu-type opioid receptor [10]) [%] | Activity [13] | Stimulation (Mu-type opioid receptor [14]) [%] |
| --- | --- | --- | --- | --- | --- | --- | --- | --- | --- | --- | --- | --- | --- | --- | --- |
| CCCCC(=O)N[C@@]12Cc3c([nH]c4ccccc34)[C@@H]3Oc4c(O)ccc5c4[C@@]31CCN(C)C2C5 | 2.07 | 51.1 | 723 | Antagonist | 3.3 | 149 | 25 | 74 | 56.9 | 31 | 349 | – | – | – | – |
| Oc1ccc2c3c1O[C@H]1c4[nH]c5ccccc5c4C[C@@]4(O)[C@@H](C2)N(CC2CC2)CC[C@]314 | – | – | – | Antagonist | – | – | – | – | – | – | – | – | – | – | – |
| CN1CC[C@]23c4c5ccc(O)c4O[C@H]2c2[nH]c4ccccc4c2C[C@@]3(NCCc2ccccc2)C1C5 | 1.1 | 1.68 | 13.8 | – | 0.95 | 5.33 | 1.5 | 33 | 16.4 | – | 13 | 74 | 93 | – | – |
| CCN[C@@]12Cc3c([nH]c4ccccc34)[C@@H]3Oc4c(O)ccc5c4[C@@]31CCN(C)C2C5 | 0.73 | 76.3 | 63.8 | – | 0.33 | 184 | 105 | 43 | – | – | 87 | – | 50 | Antagonist | – |
| CCCCCCC(=O)N[C@@]12Cc3c([nH]c4ccccc34)[C@@H]3Oc4c(O)ccc5c4[C@@]31CCN(C)C2C5 | 10.3 | 33.4 | 409 | Antagonist | 19 | 51.4 | 3.2 | 55 | – | – | 40 | – | – | – | 44 |
| C[C@@H](NC(=O)[C@@H](N)Cc1ccc(O)cc1)C(=O)NCC(=O)N(C)[C@@H](Cc1ccccc1)C(=O)NCCO | – | – | – | – | – | – | – | – | – | – | – | 62 | 100 | – | – |
| CN1CC[C@]23c4c5ccc(O)c4O[C@H]2c2[nH]c4ccccc4c2C[C@@]3(O)[C@H]1C5 [OXYMORPHINDOLE] | 1.28 | 363 | 396 | – | – | – | 284 | – | – | – | 309 | – | – | – | – |
| CN1CC[C@]23c4c5ccc(O)c4O[C@H]2c2[nH]c4ccccc4c2C[C@@]3(CCCc2ccccc2)C1C5 | 23.6 | 4.91 | 63.3 | – | 7.53 | 21.5 | 0.2 | 65 | 96.5 | – | 2.7 | 67 | 91 | – | – |
| CN1CC[C@]23c4c5ccc(O)c4O[C@H]2c2[nH]c4ccccc4c2C[C@@]3(NC(=O)CCc2ccccc2)C1C5 | 4.23 | 9.61 | 24.5 | Antagonist | 1.4 | 5.2 | 2.3 | 72 | – | – | 5.8 | – | 27 | – | – |
| CN1CC[C@]23c4c5ccc(O)c4O[C@H]2c2[nH]c4ccccc4c2C[C@@]3(N)C1C5 | 2.88 | 1050 | 399 | – | 8.6 | > 1000 | 365 | 38 | – | – | – | – | – | Antagonist | – |
| CCCCN[C@@]12Cc3c([nH]c4ccccc34)[C@@H]3Oc4c(O)ccc5c4[C@@]31CCN(C)C2C5 | 1.39 | 37.2 | 36.1 | – | 4.71 | 272 | 27 | 36 | 936 | – | 26 | 33 | 40 | – | – |
| CN1CC[C@]23c4c5ccc(O)c4O[C@H]2c2[nH]c4ccccc4c2C[C@@]3(NC(=O)Cc2ccccc2)C1C5 | 6.55 | 29.3 | 148 | – | 1.2 | 95 | 4.5 | 89 | 96.2 | – | 23 | 36 | 53 | – | – |
| Oc1ccc2c3c1O[C@H]1c4[nH]c5c(c4C[C@@]4(O)[C@@H](C2)N(CC2CC2)CC[C@]314)C[C@@]1(O)[C@H]2Cc3ccc(O)c4c3[C@@]1(CCN2CC1CC1)[C@H]5O4 | – | – | – | Antagonist | – | – | – | – | – | – | – | – | – | – | – |
| CN1CC[C@]23c4c5ccc(O)c4O[C@H]2c2[nH]c4ccccc4c2C[C@@]3(NCCCc2ccccc2)C1C5 | 1.95 | 10.2 | 7.79 | – | 0.87 | 45.1 | 5 | 37 | 27.2 | – | 4 | 65 | – | – | 50 |

From ChEMBL document CHEMBL1144921, “14-amino, 14-alkylamino, and 14-acylamino analogs of oxymorphindole. Differential effects on opioid receptor binding and functional profiles” (J Med Chem, 2003)
